Tests used:
Assay type in all cases: cell-based
Wt-CFTR = Wt-CFTR (Homo sapiens, UniProt P13569); experiment: Calu-3 CSE experiments, FLiPR assay of CFTR channel activity; set-up: this airway epithelial cell line endogenously expresses this channel; endogenous in cells; host or cells: Calu-3
Method: Addition of CFTR-inhibitor indicated with grey arrow. Superimposed, we show the effect of acute co-application of VX-770 (open squares) or SK-POT (open triangles) with forskolin. […] Only SK-POT rescued CFTR channel function in the presence of cigarette smoke extract.
Calu-3 cells were cultured using EMEM (Wisent) supplemented with FBS at 20% (v/v) and 1× Penicillin/Streptomycin (Wisent). Calu-3 cells were seeded on clear-bottom, black-walled 96 well plates (Costar, Corning) at a density of 10,000 cells/well and cultured for 2 days post-confluence. Cells then received the chronic treatment of toxin and potentiator. The toxin treatment consisted of either cigarette smoke extract (CSE) prepared in 100% DMSO (University of Alabama at Birmingham), dissolved at a concentration of 2% (v/v) in Calu-3 medium, with an equivalent concentration of DMSO alone serving as the toxin control. The chronic drug treatment was co-applied with the toxin, which included either VX-770 or Compound 11 (both prepared in 100% DMSO) dissolved in Calu-3 medium at a final concentration of 1 μm. VX-770 (Vertex) and Compound 11 solutions were prepared from 1 mM stocks. The control for the drug treatment was the vehicle, DMSO at an equivalent volume. Combining the two toxin treatments and three drug treatments, a total of six treatments were applied chronically to 4 wells per condition, for a total of 24 wells receiving chronic treatment.
Cells were cultured for an additional 24 hours after chronic treatment application, after which cells were incubated with FLiPR assay buffer. The FLiPR assay buffer consisted of blue FLiPR dye (Molecular Devices) dissolved at a concentration of 0.5 mg/mL in chloride-free buffer (150 mM NMDG, 150 mM gluconolactone, 3 mM potassium gluconate, 300 mOsm and pH 7.38). Buffer was incubated with cells at 37 degrees and 5% CO2 for 35 minutes. CFTR function was assessed by measuring changes in fluorescence activity after acute CFTR channel activation by addition of cAMP agonist forskolin dissolved in chloride-free buffer to a final concentration 1 μm, using the SpectraMax i3x multimodal plate reader. Fluorescence readings (excitation 530 nm; emission 560 nm) for each well were taken at 30-second intervals for 5 minutes (baseline) or 10 minutes (activation). CFTR activity was then terminated by addition of CFTR-inhibitor 172 dissolved in chloride-free buffer to a concentration of 10 μm, to further verify the specificity of the response to CFTR activity. Fluorescence changes were recorded at 30-second intervals for another 10 minutes. In analysis, all fluorescence values were normalized per well to the final reading prior to the addition of forskolin and expressed as a percentage of this reading.

F508del-CFTR = molecular target: T1, F508del-CFTR (Homo sapiens, UniProt P13569, DEL508-508); experiment: Dose response, potentiation of forskolin-activated F508del-CFTR chloride channel activity in CFBE41o- cells (fluorescence membrane potential assay); conditions: low temperature (27 degrees Celsius) correction, read-out: potency in potentiating cyclic AMP dependent F508del-CFTR chloride channel activity
T1 construct: F508del-CFTR was endogenously expressed in CFBE41o^− cells; endogenous in cells; host or cells: CFBE41o-
T1 sequence (P13569 with tags, fused parts or gaps DEL508-508): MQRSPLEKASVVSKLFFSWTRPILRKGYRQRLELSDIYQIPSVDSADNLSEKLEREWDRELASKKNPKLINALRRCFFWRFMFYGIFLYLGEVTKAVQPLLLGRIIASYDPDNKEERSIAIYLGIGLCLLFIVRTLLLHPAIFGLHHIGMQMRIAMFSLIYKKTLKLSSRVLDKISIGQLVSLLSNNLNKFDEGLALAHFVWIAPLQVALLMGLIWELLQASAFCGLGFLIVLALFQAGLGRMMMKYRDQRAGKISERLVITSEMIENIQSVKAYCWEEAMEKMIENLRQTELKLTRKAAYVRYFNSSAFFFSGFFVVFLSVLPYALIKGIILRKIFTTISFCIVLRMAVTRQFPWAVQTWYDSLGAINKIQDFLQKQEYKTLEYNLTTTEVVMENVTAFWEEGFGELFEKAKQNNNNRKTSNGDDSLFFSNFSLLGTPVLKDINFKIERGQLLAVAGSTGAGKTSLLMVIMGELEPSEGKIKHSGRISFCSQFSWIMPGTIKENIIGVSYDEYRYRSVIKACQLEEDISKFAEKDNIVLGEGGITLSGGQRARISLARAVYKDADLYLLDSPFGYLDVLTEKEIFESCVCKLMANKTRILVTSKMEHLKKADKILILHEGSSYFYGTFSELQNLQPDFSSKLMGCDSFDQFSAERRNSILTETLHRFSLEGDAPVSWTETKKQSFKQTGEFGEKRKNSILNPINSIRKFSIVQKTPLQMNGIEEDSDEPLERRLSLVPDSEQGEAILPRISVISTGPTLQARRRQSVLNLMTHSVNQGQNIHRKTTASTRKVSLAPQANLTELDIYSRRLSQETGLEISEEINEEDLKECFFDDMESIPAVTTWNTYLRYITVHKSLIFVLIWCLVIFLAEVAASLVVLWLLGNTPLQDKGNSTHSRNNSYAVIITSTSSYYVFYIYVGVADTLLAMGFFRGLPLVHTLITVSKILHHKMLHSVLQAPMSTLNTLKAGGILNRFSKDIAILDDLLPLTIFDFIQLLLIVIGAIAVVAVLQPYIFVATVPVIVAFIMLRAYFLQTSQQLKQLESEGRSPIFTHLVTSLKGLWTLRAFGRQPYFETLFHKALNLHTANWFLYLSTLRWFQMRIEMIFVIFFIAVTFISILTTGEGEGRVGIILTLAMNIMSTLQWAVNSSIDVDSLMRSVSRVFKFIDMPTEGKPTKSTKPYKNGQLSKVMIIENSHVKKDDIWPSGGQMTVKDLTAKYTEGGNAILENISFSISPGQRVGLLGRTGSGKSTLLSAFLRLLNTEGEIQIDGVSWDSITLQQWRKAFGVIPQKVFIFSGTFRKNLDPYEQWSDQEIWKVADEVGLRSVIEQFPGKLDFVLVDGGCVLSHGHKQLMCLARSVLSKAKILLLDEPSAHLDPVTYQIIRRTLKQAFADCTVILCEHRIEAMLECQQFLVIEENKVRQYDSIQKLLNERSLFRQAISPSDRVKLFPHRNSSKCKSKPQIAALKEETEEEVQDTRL
Method: In these studies, F508del-CFTR was endogenously expressed in CFBE41o^− cells and it's trafficking defect corrected by low temperature (27 degrees Celsius) incubation. The fold increase in cyclic AMP dependent F508del-CFTR mediated chloride channel activity induced by potentiator treatment was determined using the fluorescence-based, membrane potential difference assay previously described.

[1] = system: primary differentiated human bronchial epithelial cultures; experiment: Bead tracking assay of mucociliary movement, primary bronchial epithelial cultures exposed to cigarette smoke extract
Method: Compound 11 was tested in an in-vitro model of COPD. In this model, primary differentiated human bronchial epithelial cultures were exposed to cigarette smoke extract (4,5). Exposure to cigarette smoke extract (CSE) led to mucostasis and slowed mucociliary movement (FIG. 1(A) and (B)). […] Changes in mucociliary movement were determined as in our previous publication (7), i.e., by tracking the speed of fluorescent beads added to the surface of the airway cultures. The relative rescue effect of Compound 11 compared favourably relative to the competitor, the FDA approved CFTR potentiator marketed as Ivacaftor (VX-770).
Mature bronchial epithelial cultures, seeded on 24-well transwell inserts, derived from non-smoker donors of variable ages were received from the University of Iowa and cultured at air-liquid interface (ALI) using UltraG medium. A total of 6 inserts per donor were cultured, and all inserts from a single donor were selected to receive chronic drug and toxin treatment. Ahead of chronic treatment, cultures were subject to mucomist to reduce the volume and viscosity of the mucous layer ahead of imaging. Cultures were first washed twice with 200 uL HBSS (Wisent) applied apically to the transwell, each wash for 10 minutes at 37 degrees and 5% CO2. Cells were then incubated with 10 μM N-acetyl-cysteine (source?) dissolved in HBSS (Wisent) for 30 minutes, followed by a final HBSS wash as described previously. The toxin treatment consisted of either cigarette smoke extract (CSE) prepared in 100% DMSO (University of Alabama at Birmingham), dissolved at a concentration of 2% (v/v) in UltraG medium, with an equivalent concentration of DMSO alone serving as a control. The chronic drug treatment was co-applied with the toxin treatment, which included either VX-770 (Vertex) or SK-POT, aka Compound 11 (both prepared in 100% DMSO) dissolved in UltraG medium at a final concentration of 1 μm. There were a total of 6 chronic treatments, with each of the 6 inserts per donor receiving a different chronic treatment. Bronchial epithelia were incubated with the chronic treatment, applied apically, for 24 hours at 37 degrees C. and 5% CO2. After 24 hours, green fluorescent microspheres (brand?) dissolved in HBSS at a concentration of 0.05% (v/v) were applied apically; cultures were incubated with the microspheres for 45 minutes. The toxin and potentiator treatments were carried forth into the microsphere solution.
Inserts were then imaged at room temperature by epifluorescence microscopy (Zeiss or Olympus). The basic replicate of the assay consists of a 5-second video captured in the green channel and 40-60 frames per second; Z-position was adjusted ahead of each video to ensure beads in the airway surface liquid stratum immediately above the cilia were being captured. 5 videos were captured per insert/conditions, representing the centre and 4 corners of the insert. 2 sets of 5 videos were captured per insert/condition: one at baseline, and one 20 minutes following CFTR stimulation by forskolin at a concentration of 10 μM. Inserts were incubated at room temperature after forskolin addition.
Videos were captured using Volocity software and exported as one TIF file per frame. Frames were then re-compiled into complete videos using Arivis 4D software. Using an algorithm as previously described in Wu et al. 2017, microspheres were highlighted by adjusting two parameters: fluorescence intensity and diameter. […]

wild-type human CFTR = molecular target: T2, wild-type human CFTR (Homo sapiens, UniProt P13569); experiment: Cell-attached patch clamp of CFTR channel potentiation in HEK-293 cells; conditions: one active channel with forskolin alone
T2 construct: host or cells: HEK-293
T2 sequence (P13569 whole entry): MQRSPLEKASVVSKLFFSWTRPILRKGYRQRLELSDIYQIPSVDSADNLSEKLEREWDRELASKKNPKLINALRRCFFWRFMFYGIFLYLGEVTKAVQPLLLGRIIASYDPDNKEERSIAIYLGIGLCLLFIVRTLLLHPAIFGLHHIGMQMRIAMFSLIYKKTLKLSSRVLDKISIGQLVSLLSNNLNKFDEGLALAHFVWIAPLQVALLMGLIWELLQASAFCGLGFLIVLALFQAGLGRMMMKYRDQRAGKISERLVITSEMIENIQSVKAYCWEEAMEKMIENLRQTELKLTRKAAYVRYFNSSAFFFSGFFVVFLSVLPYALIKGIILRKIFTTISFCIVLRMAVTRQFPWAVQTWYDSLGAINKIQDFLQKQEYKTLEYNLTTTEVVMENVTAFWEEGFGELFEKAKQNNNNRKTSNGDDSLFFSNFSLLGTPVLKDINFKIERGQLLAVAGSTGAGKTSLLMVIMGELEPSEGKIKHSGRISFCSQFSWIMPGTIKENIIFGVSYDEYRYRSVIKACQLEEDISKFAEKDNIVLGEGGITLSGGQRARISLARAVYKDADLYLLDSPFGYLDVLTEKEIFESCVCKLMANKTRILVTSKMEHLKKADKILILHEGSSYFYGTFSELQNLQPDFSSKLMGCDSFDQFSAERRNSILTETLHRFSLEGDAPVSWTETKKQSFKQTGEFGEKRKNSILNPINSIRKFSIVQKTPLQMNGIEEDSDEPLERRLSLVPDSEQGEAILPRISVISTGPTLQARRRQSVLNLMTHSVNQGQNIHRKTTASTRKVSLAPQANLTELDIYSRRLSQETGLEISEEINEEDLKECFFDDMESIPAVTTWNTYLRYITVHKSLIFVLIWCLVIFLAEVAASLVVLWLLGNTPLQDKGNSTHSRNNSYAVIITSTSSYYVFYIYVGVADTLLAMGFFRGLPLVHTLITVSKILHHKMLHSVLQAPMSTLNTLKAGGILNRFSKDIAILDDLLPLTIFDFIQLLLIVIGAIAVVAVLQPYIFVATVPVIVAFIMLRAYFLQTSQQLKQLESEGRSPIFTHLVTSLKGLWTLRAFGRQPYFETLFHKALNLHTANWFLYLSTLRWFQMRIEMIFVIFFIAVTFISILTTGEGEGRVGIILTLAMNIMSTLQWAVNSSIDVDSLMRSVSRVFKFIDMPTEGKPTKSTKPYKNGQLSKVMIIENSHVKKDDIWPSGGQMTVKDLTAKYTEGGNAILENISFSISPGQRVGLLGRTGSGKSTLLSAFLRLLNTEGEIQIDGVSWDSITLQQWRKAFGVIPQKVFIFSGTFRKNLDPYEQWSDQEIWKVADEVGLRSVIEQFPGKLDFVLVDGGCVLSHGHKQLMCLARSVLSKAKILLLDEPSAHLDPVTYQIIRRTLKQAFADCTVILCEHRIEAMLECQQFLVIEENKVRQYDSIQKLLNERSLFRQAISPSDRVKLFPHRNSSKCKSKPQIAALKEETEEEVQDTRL
Method: HEK-293 cells stably expressing wild-type human CFTR in patch clamp studies of single channel activity were used. […] CFTR Cl^− channels were recorded in cell-attached membrane patches using an Axopatch 200A patch clamp amplifier and pCLAMP software (both from Molecular Devices, Sunnyvale, CA). The pipette and bath (extracellular) solutions contained 140 mm N-methyl-d-glucamine, 140 mm aspartic acid, 5 mm CaCl2, 2 mm MgSO4, and 10 mm TES, adjusted to pH 7.3 with Tris ([Cl^−]: 10 mM). The bath was maintained at room temperature.
In order to activate Wt-CFTR channels, 10 uM forskolin was added to the bath. […] To determine channel number, we used the maximum number of simultaneous channel openings observed during the experimental procedure. Single channel recordings were filtered and digitized data as described previously. To measure single-channel current amplitude, Gaussian distributions were fitted to current amplitude histograms. To measure Po, lists of open and closed times were created using a half-amplitude crossing criterion for event detection, and dwell time histograms were constructed and fitted. For the purpose of illustration, single-channel records were filtered at 500 Hz.

Chain of Wt-CFTR (P13569 whole entry): as above

EC90 (Wt-CFTR; Calu-3, CFTR channel potentiation, read-out: approximate EC90) [nM] | EC50 (F508del-CFTR) [nM] | Compound | forskolin-activated CFTR channel activity after CSE exposure (Wt-CFTR; Calu-3, CSE 2%, compounds 1 uM) | mucostasis / bead velocity in CSE-treated cultures ([1]; CSE 2%, compound 1 μM for 24 hours, forskolin 10 μM) | bead velocity under control conditions ([1]; no CSE, compound added with vehicle for 24 hours) | number of active channels (wild-type human CFTR)
~1000 | 32 | CC(C)(C)c1cc(C(C)(C)C)c(NC(=O)c2c[nH]c3ccccc3c2=O)cc1O [VX-770, reference compound] | only (SK-POT) treatment led to a significant increase | a significant increase in the forskolin induced response in CSE-treated cultures after VX-770 addition was not observed | Neither VX-770 nor Compound 11 had any impact on bead velocity | –
– | – | CFTRinh-172 | – | – | – | significant decrease in the number of active channels

Source: US20260055065A1, “PYRIDAZINONE COMPOUNDS WHICH MODULATE MUTANT PROTEINS FOR TREATING RESPIRATORY DISEASES” (The Hospital for Sick Children, priority 2022, published 2026)
